Results as given in patent US20180343865A1, “HERBICIDAL COMPOSITIONS COMPRISING ISOXAZOLO[5,4-B]PYRIDINES” (BASF SE, priority 2015, published 2018).

Key:
Assay type in all cases: in vivo
[1] = test system: Amaranthus palmeri; assay: Greenhouse postemergence herbicidal activity on AMAPA, 20 DAT; settings: Amaranthus palmeri, post-emergence, 480 h, read-out: % activity, solo (I.B)
Description: (§1) For the post emergence treatment, the plants were first grown to the 2 leaf station (GS 12) and applied at GS 12-19 depending on the species. The herbicidal compositions were suspended or emulsified in water as distribution medium and sprayed using finely distributing nozzles.
(§2) The plants have been cultivated due to their individual requirements at 10 to 25° C. and. 20 to 35° C. The plants were irrigated due to their necessity.
(§3) The respective stated components A), were formulated as a 5% by weight strength emulsion concentrate containing wettol EM 31 20% and Cyclohexanone 80%. The respective stated components B), were formulated as either emulsifiable concentrates (EC), soluble liquids (SL), suspension concentrates (SC) or soluble granules (SG) as indicated in the table below. Component A, component B and the solvent system are introduced into the spray liquor used for applying the active compound. In the examples, the solvent used was water containing 1% Dash (Agnique ME 181 37.5%, Lutensit A-EP 22.5%, and Oleic Acid 5%) and 2% ammonium suflate.
(§4) In the following experiments, the herbicidal activity for the individual herbicide compounds (solo and mixture applications), the herbicidal succession was assessed 20 days after treatment (DAT). The evaluation for the damage on undesired weeds caused by the chemical compositions was carried out using a scale from 0 to 100%, compared to the untreated control plants. Here, 0 means no damage and 100 means complete destruction of the plants. The plants used in the greenhouse experiments belonged to the following species:
(§5) The value E, which corresponds to the effect (in %) that is to be expected if the activity of the individual compounds is additive, was calculated using the method of S. R. Colby (1967) “Calculating synergistic and antagonistic responses of herbicide combinations”, Weeds 15, p. 22 ff. Colby calculation for 2 way mixtures:
(§6) where: • X=effect in percent using herbicide A at an application rate a; • Y=effect in percent using herbicide B at an application rate b; • E=expected effect (in %) of A+B at application rates a+b
(§7) If the value observed in this manner is higher than the value E calculated according to Colby, a synergistic effect is present.

[2] = test system: Amaranthus retroflexus; assay: Greenhouse postemergence herbicidal activity on AMARE, 20 DAT; settings: Amaranthus retroflexus, post-emergence, 480 h, AMARE, 31.25 gai/ha, postemergence, 20 DAT; read-out: % activity, solo (I.B)
Description: as §1, §2, §3, §4, §5, §6, §7

[3] = test system: Abutilon theoprasti; assay: Greenhouse postemergence herbicidal activity on ABUTH, 20 DAT; settings: 20 DAT
Description: as §1, §2, §3, §4, §5, §6, §7

[4] = test system: Kochia scoparia; assay: Greenhouse postemergence herbicidal activity on KCHSC, 20 DAT; settings: 20 DAT
Description: as §1, §2, §3, §4, §5, §6, §7

[5] = test system: Chenopodium album; assay: Greenhouse postemergence herbicidal activity on CHEAL, 20 DAT; settings: 20 DAT
Description: as §1, §2, §3, §4, §5, §6, §7

[6] = test system: Ipomoea hederacea; assay: Greenhouse postemergence herbicidal activity on IPOHE, 20 DAT; settings: 20 DAT
Description: as §1, §2, §3, §4, §5, §6, §7

[7] = test system: Polygonum persicaria; assay: Greenhouse postemergence herbicidal activity on POLPE, 20 DAT; settings: POLPE, postemergence, 20 DAT
Description: as §1, §2, §3, §4, §5, §6, §7

[8] = test system: Sinapis arvensis; assay: Greenhouse postemergence herbicidal activity on SINAR, 20 DAT; settings: 50 gai/ha
Description: as §1, §2, §3, §4, §5, §6, §7

[9] = test system: Stellaria media; assay: Greenhouse postemergence herbicidal activity on STEME, 20 DAT; settings: STEME, postemergence, 20 DAT
Description: as §1, §2, §3, §4, §5, §6, §7

[10] = test system: Polygonum convolvulus; assay: Greenhouse postemergence herbicidal activity on POLCO, 20 DAT; settings: POLCO, postemergence, 20 DAT
Description: as §1, §2, §3, §4, §5, §6, §7

[11] = test system: Polygonum aviculare; assay: Greenhouse postemergence herbicidal activity on POLAV, 20 DAT
Description: as §1, §2, §3, §4, §5, §6, §7

[12] = test system: Conyza canadiensis; assay: Greenhouse postemergence herbicidal activity on ERICA, 20 DAT; settings: ERICA, postemergence, 20 DAT
Description: as §1, §2, §3, §4, §5, §6, §7

[13] = test system: Ambrosia elatior; assay: Greenhouse postemergence herbicidal activity on AMBEL, 20 DAT; settings: AMBEL, 25 gai/ha, postemergence, 20 DAT
Description: as §1, §2, §3, §4, §5, §6, §7

Compound: O=C(O)c1cc(C2CC2)nc2onc(-c3ccc(OC(F)F)cc3)c12 [(I.B)]
- inhibition at 15.6 g/ha ([1]; 15.6 gai/ha): 20%
- inhibition at 31.25 g/ha ([1]; 31.25 gai/ha): 70%
- inhibition at 62.5 g/ha ([1]; 62.5 gai/ha): 78%
- inhibition at 31.25 g/ha [2]: 89%
- inhibition at 31.25 g/ha ([3]; Abutilon, post-emergence, 480 h, 31.25 gai/ha, read-out: % activity, solo (I.B)): 70%
- inhibition at 62.5 g/ha ([3]; Abutilon, post-emergence, 480 h, 62.5 gai/ha, read-out: % activity, solo (I.B)): 75%
- inhibition at 125 g/ha ([3]; Abutilon, post-emergence, 480 h, 125 gai/ha, read-out: % activity, solo (I.B)): 73%
- inhibition at 31.25 g/ha ([4]; Bassia scoparia, post-emergence, 480 h, 31.25 gai/ha, read-out: % activity, solo (I.B)): 43%
- inhibition at 31.25 g/ha ([5]; Chenopodium album, post-emergence, 480 h, 31.25 gai/ha, read-out: % activity, solo (I.B)): 53%

Compound: O=C(O)COc1ccc(Cl)cc1Cl [2,4-D]
- % activity, solo 2,4-D ([6]; 25 gai/ha): 98%
- % activity, solo 2,4-D ([6]; 100 gai/ha): 98%
- % activity, solo 2,4-D ([7]; 25 gai/ha): 10%
- % activity, solo 2,4-D ([7]; 50 gai/ha): 40%
- % activity, solo 2,4-D ([7]; 100 gai/ha): 70%
- % activity, solo 2,4-D [8]: 80%
- % activity, solo 2,4-D ([9]; 25 gai/ha): 0%
- % activity, solo 2,4-D ([9]; 50 gai/ha): 0%
- % activity, solo 2,4-D ([9]; 100 gai/ha): 30%
- % activity, solo 2,4-D ([10]; 25 gai/ha): 30%
- % activity, solo 2,4-D ([10]; 50 gai/ha): 40%
- % activity, solo 2,4-D ([10]; 100 gai/ha): 70%
- % activity, solo 2,4-D ([11]; 25 gai/ha): 10%
- % activity, solo 2,4-D ([11]; 50 gai/ha): 98%
- % activity, solo 2,4-D ([3]; 25 gai/ha): 50%
- % activity, solo 2,4-D ([3]; 50 gai/ha): 80%
- % activity, solo 2,4-D ([3]; 100 gai/ha): 90%
- % activity, solo 2,4-D ([4]; 25 gai/ha): 90%
- % activity, solo 2,4-D ([12]; 25 gai/ha): 60%
- % activity, solo 2,4-D ([12]; 100 gai/ha): 75%
- % activity, solo 2,4-D [13]: 45%
- % activity, solo 2,4-D ([5]; 50 gai/ha): 90%
- % activity, solo 2,4-D ([5]; 100 gai/ha): 90%
